# Laboratory results: patent publication US11857601B2, “Pharmaceutical composition for cancer treatment comprising fusion protein including IL-2 protein and CD80 protein and anticancer drug” (GI INNOVATION, INC., priority 2020, dated 2024)
# Marks after values point to notes of the source that are not given here.
# Key:
# LL/2 cell line = assay: mGI-101 and Axitinib in LL/2 allotransplanted tumor model; assay type: in vivo, C57BL/6 mice; settings: mGI-101 3 mg/kg IP, Axitinib 30 mg/kg PO
# Protocol: (§6) Mouse-derived colorectal cancer cells, CT26 (Mus musculus, Colon adenocarcinoma), and mouse-derived lung cancer cells, LL/2 (Mus musculus, Lung adenocarcinoma), were purchased from ATCC (USA) and used for the test. The cells to be used for the test were thawed, mixed with RPMI1640 (A1049101, Thermofisher scientific) medium containing 10% FBS (fetal bovine serum, Gibco, 10082-147), and then placed in a cell culture flask, and cultured in a 37° C., 5% CO2 incubator. The cells were washed with PBS, and then the cells were isolated using Trypsin-EDTA (15090, Gibco), and centrifugation (125×g, 5 minutes) was performed to discard the supernatant, and then the cells were suspended in a new medium to obtain the cell suspension. The viability of the cells was identified, and then a cell line was prepared by diluting in a medium to a concentration of 5.0×10^6 cells/mL.
# (§7) 6-week-old male BALB/cAnHsd mice or C57BL/6NHsd mice were purchased and used for the test. After the end of the acclimation period of 7 days, the cells were transplanted into healthy animals. The cell suspension (5×10^6 cells/mL) was dispensed, and filled into a disposable syringe, and transplantation of the suspension was performed by subcutaneous administration at 0.1 mL/head in the right dorsal region of the animals. General symptoms were observed once a day during the engraftment and growth period after cell line transplantation.
# (§8) After the inoculation of the cell line was performed, when the tumor size at the site to which the cell line was transplanted reached about 50 mm^3, the tumor size of each group was distributed as uniformly as possible according to the ranked tumor size.
# (§9) The test substance was administered orally or intraperitoneally, and administered for 3 weeks depending on the composition of the test group. In the case of oral administration, the animals were fixed with the cervical spine skin fixation method, and administered directly into the stomach using a sonde for oral administration. In the case of intraperitoneal administration, the animals were fixed with the cervical spine skin fixation method, and administered intraperitoneally using a syringe equipped with a 26 gauge needle. The administration rate was not to exceed 200 μl/min.
# Syngeneic model was prepared by subcutaneously transplanting the LL/2 cell line into C57BL/6 mice, and then the test substance was administered to evaluate the anticancer effect.
# CT26 cells [1] = assay: mGI-101 and Axitinib in CT26 allotransplanted tumor model; settings: mGI-101 3 mg/kg IP, Axitinib 30 mg/kg PO;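 note: subcutaneous CT26 syngeneic tumors in male BALB/c mice, dosing started once tumors were near 50 mm^3, drugs given orally or intraperitoneally for up to 3 weeks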
# Protocol: as §6, §7, §8, §9
# Syngeneic model was prepared by subcutaneously transplanting the CT26 cell line into Balb/c mice, and then the test substance was administered to evaluate the anticancer effect.
# [2] = system: CT26 (mouse colon carcinoma) cells; assay: mGI-101 and Galunisertib in CT26 allotransplanted tumor model; assay type: in vivo, BALB/cAnHsd mice; settings: mean ± SD, mGI-101 3 mg/kg IP, Galunisertib 75 mg/kg PO
# Protocol: 6-week-old male BALB/cAnHsd mice were purchased and used for the test.
# The tumor size was measured three times a week for 3 weeks from the day of start of administration of the test substance. The major axis and minor axis of the tumor were measured using a caliper, and the tumor size (tumor volume, TV) was calculated using the following equations. TV (mm^3)=(W^2×L)/2 [Equation 1]
# CT26 cells [3] = assay: mGI-101 and Lenvatinib in CT26 allotransplanted tumor model; assay type: in vivo, BALB/c mice
# Protocol: (§1) CT26 cells were purchased from ATCC (USA) and cultured in RPMI1640 medium (Gibco) containing 10% FBS (Gibco) and 1% antibiotic/antifungal agent (Gibco). The cultured cells were harvested using trypsin (Gibco) and then suspended in PBS. In order to establish an allotransplanted tumor model, 1×10^6 CT26 cells were subcutaneously injected into the right flank of BALB/c female mice (7-week-old).
# A certain period of time after the cell transplantation, the tumor volume was measured for animals with no abnormalities in the health condition of the animals, and the mice were assigned so that the average tumor volume of each group was less than 70-100 mm^3, each group including 10 mice.
# In the case of Lenvatinib powder, the dose was calculated and weighed, and it was prepared to the dose concentration using a 0.5% methyl cellulose excipient. In order to minimize the loss of the test substance, the doses for 3 or 4 days were weighed, and prepared using the excipient on the day of administration and injected.
# (§2) Clinical symptoms such as a disease and a behavioral change were observed once a day during the test period, and deceased animals were identified, and the mice were sacrificed when the tumor size reached a size of 4,000 mm^3.
# (§3) The tumor volume before administration of each subject was set as the value measured at the time of grouping.
# (§4) All statistical calculations were performed using Prism 8.0 (Graph Pad Software Inc, USA). The comparison of tumor volume measurements was made through two-way analysis of variance followed by Tukey's multiple comparison test. A p value of less than 0.05 was considered significant.
# Renca cells = assay: mGI-101 and Lenvatinib in Renca allotransplanted tumor model; assay type: in vivo, BALB/c mice; settings: mGI-101 twice a week (BIW), Lenvatinib daily, 10 mice per group
# Protocol: as §1, with “Renca” for “CT26”, “5×10^6 Renca” for “1×10^6 CT26”, “back” for “right flank”, “(8-week-old).” for “(7-week-old).”
# A certain period of time after cell inoculation of the tumor grafts of the mice, the tumor volume was measured for animals with no abnormalities in the health condition of the animals, and the mice were randomly selected and assigned, each group including 10 mice.
# The death of the mouse, the type of general symptoms, the date of onset, and the severity of symptoms were observed once a day during the test period, and recorded for each subject.
# (§5) The tumor volume before administration of each subject was set as the value measured at the time of grouping, and the anti-tumor efficacy was evaluated as compared with the vehicle control.
# as §4
# EMT6 cells = assay: mGI-101 and Paclitaxel in EMT6 allotransplanted tumor model; assay type: in vivo, BALB/c mice
# Protocol: EMT6 cells were purchased from ATCC (USA) and cultured in Waymouth MB 751/1 medium (WELGENE) containing 10% FBS (Gibco) and 1% antibiotic/antifungal agent (Gibco). The cultured cells were harvested using trypsin (Gibco), and then a high-concentration cell suspension (2×10^6 cells/0.4 mL) for 10 mice was prepare with PBS and stored on ice until injected into mice. In order to establish an allotransplanted tumor model, the skin was incised slightly away from the 4th nipple position from the upper right of the ventral region of BALB/c female mice (7-week-old), and the location of mammary fat pad at the incised site was identified, and then EMT6 cell line prepared inside the mammary fat pad was injected at 2×10^5 cells/40 uL/head.
# A certain period of time after cell inoculation of the tumor grafts of the mice, the tumor volume was measured for animals with no abnormalities in the health condition of the animals, and the subjects were selected so that the average of each group reached less than 70-100 mm^3, and the selected animals were assigned as evenly as possible based on tumor volume and body weight, each group including 10 animals. As shown in Table 24 and FIG. 106, the test groups were configured and the test substances were administered.
# as §2, §5, §4
# [4] = system: CD8+ T cells and CD4+/FoxP3+ Treg cells; assay: Proliferation of CD8+ T cells and Treg cells in PBMCs (Exp. Ex. 10); assay type: cell-based, human; settings: for proportion of CD8+ T cells: anti-CD3ε 1 μg/ml, 7 days, compared with no stimulus, anti-CD3 antibody alone and GI101C1; for proliferation of CD4+/FoxP3+ Treg cells: compared with no stimulus and anti-CD3 antibody alone
# Protocol: Human PBMCs were purchased from Allcells (Lot #3014928, USA). […] CellTrace CFSE dye was used, which was reacted with the human PBMCs under a light-blocking condition at […] for 20 minutes. The cells were labeled with CFSE by being reacted with 1 μM CellTrace CFSE dye at 37° C. for 20 minutes. CFSE not bound to the cells was removed by being reacted for 5 minutes with a culture medium having a 5-fold volume of the staining reaction solution and then by being centrifuged at 1,300 rpm for 5 minutes. The CFSE-labeled PBMCs were resuspended in the culture medium (RPMI1640 medium containing 10% fetal bovine serum, 10 mM HEPES, 100 U/ml penicillin/streptomycin, 1 mM sodium pyruvate, 55 μM 2-mercaptoethanol, 1 mM non-essential amino acid, and 2 mM L-glutamine), and then added to a 96-well microplate at 1×10^5 cells per well.
# The incubated cells were examined for their degree of proliferation by measuring, with FACS analysis using anti-human CD4-PE antibody (BioLegend, USA), anti-human CD8-PE/Cy7 antibody (BioLegend, USA), and anti-human FoxP3-APC antibody (BioLegend, USA), a proportion of CD8+ T cells that had not been labeled with CFSE.
# MDA-MB-231 cells = assay: GI101 and Keytruda in humanized mice xenotransplanted with MDA-MB-231; assay type: in vivo, human
# Protocol: Fetal bovine serum (FBS, 16000-044, Thermofisher scientific, USA), penicillin-streptomycin; 10,000 units/ml penicillin and 10,000 μg/ml streptomycin (15140122, Thermofisher scientific, USA); and RPMI1640 (A1049101, Thermofisher scientific, USA) per 100 ml were mixed and used.
# The cells were suspended using Trypsin-EDTA (Cat. 25200-072, Thermofisher scientific, USA). The suspended cells were collected by centrifugation (125×g, 5 minutes) using a centrifuge, transferred to a new medium and a new flask, and passage cultured. The cultured cells were put to a centrifugation tube on the day of cell line transplantation and then collected. […] 8-week-old female NSGb2m (NOD.Cg-B2m^tm1UncPrkdc^scidIl2rg^tm1Wjl/SzJ) mice were purchased from Joongang Bio (Korea) and used for the test. The body weight was measured the next day after the end of the quarantine and acclimation period, and then the human-derived PBMC cell suspension (5×10^6 cells/0.2 ml) prepared for healthy animals was filled into a disposable syringe and administered to the caudal vein of the animals. General symptoms were observed once a day after cell transplantation.
# A certain period of time after the cell transplantation, the tumor volume was measured for animals with no abnormalities in the health condition of the animals, and 32 subjects were selected so that the average of each group reached 40 to 80 mm^3. The selected animals were grouped into a total of 4 groups as evenly as possible based on tumor volume and body weight, each group including 8 animals.
# General symptoms such as appearance, behavior, and excrement were observed once a day during the observation period, and deceased animals were identified. Body weight was measured on the day of cell line transplantation, twice a week, and on the day of animal sacrifice. The major axis (maximum length, L) and minor axis (perpendicular width, W) of the tumor were measured using a caliper (Digital caliper, mitutoyo, Japan) three times a week during the observation period, and the tumor volume (TV) was calculated by substituting them into the following equations.
# as §3
# [5] = end of the experiment, 10 mice per group
# [6] = day 42 vs day 21 after tumor transplantation, 8 animals per group
compound,measurement,setting,value
"CNC(=O)c1ccccc1Sc1ccc2c(/C=C/c3ccccn3)n[nH]c2c1 [Axitinib, reference compound]",Tumor size,"LL/2 cell line; Day 0, mean ± SD",55.77 ± 11.25 mm^3
same,Tumor size,"LL/2 cell line; Day 2, mean ± SD",88.73 ± 21.26 mm^3
same,Tumor size,"LL/2 cell line; Day 5, mean ± SD",179.31 ± 52.62 mm^3
same,Tumor size,"LL/2 cell line; Day 7, mean ± SD",362.30 ± 97.92 mm^3
same,Tumor size,"LL/2 cell line; Day 9, mean ± SD",584.17 ± 172.94 mm^3
same,Tumor size,"LL/2 cell line; Day 12, mean ± SD",892.90 ± 256.88 mm^3
same,Tumor size,"LL/2 cell line; Day 14, mean ± SD",1292.27 ± 385.43 mm^3
same,Tumor size,"LL/2 cell line; Day 16, mean ± SD",1775.26 ± 462.50 (9) mm^3
same,Tumor size,"LL/2 cell line; Day 19, mean ± SD",2551.08 ± 695.31 (9) mm^3
same,Tumor size,"LL/2 cell line; Day 21, mean ± SD","4236.33 ± 1060.18 (9)**^,## mm^3"
same,Tumor size,"CT26 cells [1]; Day 0, mean ± SD",61.67 ± 12.58 mm^3
same,Tumor size,"CT26 cells [1]; Day 5, mean ± SD",261.76 ± 61.86 mm^3
same,Tumor size,"CT26 cells [1]; Day 7, mean ± SD",354.05 ± 104.90 mm^3
same,Tumor size,"CT26 cells [1]; Day 9, mean ± SD",442.98 ± 148.70 mm^3
same,Tumor size,"CT26 cells [1]; Day 12, mean ± SD",529.85 ± 206.76 mm^3
same,Tumor size,"CT26 cells [1]; Day 14, mean ± SD",671.72 ± 303.14* mm^3
same,Tumor size,"CT26 cells [1]; Day 16, mean ± SD",970.72 ± 475.99** mm^3
same,Tumor size,"CT26 cells [1]; Day 19, mean ± SD",1129.12 ± 639.16**** mm^3
same,Tumor size,"CT26 cells [1]; Day 21, mean ± SD",1710.57 ± 1133.79**** mm^3
"Cc1cccc(-c2nn3c(c2-c2ccnc4ccc(C(N)=O)cc24)CCC3)n1 [Galunisertib, reference compound]",Tumor size,[2]; Day 0,61.98 ± 12.23 mm^3
same,Tumor growth inhibition,[2]; Day 2,15.60 ± 38.26%
same,Tumor size,[2]; Day 2,187.20 ± 55.14 mm^3
same,Tumor growth inhibition,[2]; Day 4,34.09 ± 27.14%
same,Tumor size,[2]; Day 4,260.69 ± 78.70 mm^3
same,Tumor growth inhibition,[2]; Day 7,21.12 ± 34.98%
same,Tumor size,[2]; Day 7,398.78 ± 146.30 mm^3
COc1cc2nccc(Oc3ccc(NC(=O)NC4CC4)c(Cl)c3)c2cc1C(N)=O [Lenvatinib],number of mice with tumor growth inhibition rate of 30% or more,CT26 cells [3]; [5],6 mice
same,number of mice with tumor growth inhibition rate of 50% or more,CT26 cells [3]; [5],4 mice
same,number of mice with tumor growth inhibition rate of 80% or more,CT26 cells [3]; [5],1 mice
same,anticancer effect (tumor size) compared with the control,"CT26 cells [3]; mGI-101 3 mg/kg i.v. QW, Lenvatinib 3 mg/kg p.o. daily, Lenvatinib day 18, 21, combination day 16, 18, 21",statistically significant anticancer effect
same,number of mice with tumor growth inhibition rate of 30% or more,Renca cells,4 mice
same,number of mice with tumor growth inhibition rate of 50% or more,Renca cells,2 mice
same,number of mice with tumor growth inhibition rate of 80% or more,Renca cells,no mouse
"CC(=O)O[C@H]1C(=O)[C@@]2(C)[C@H]([C@H](OC(=O)c3ccccc3)[C@]3(O)C[C@H](OC(=O)[C@H](O)[C@@H](NC(=O)c4ccccc4)c4ccccc4)C(C)=C1C3(C)C)[C@]1(OC(C)=O)CO[C@@H]1C[C@@H]2O [Paclitaxel, reference compound]",number of mice with tumor growth inhibition rate of 30% or more,"EMT6 cells; EMT6, 10 animals per group",7 mice
same,number of mice with tumor growth inhibition rate of 50% or more,"EMT6 cells; EMT6, 10 animals per group",4 mice
same,number of mice with tumor growth inhibition rate of 80% or more,"EMT6 cells; EMT6, 10 animals per group",2 mice
same,tumor size vs control,"EMT6 cells; day 13, mGI-101 3 mg/kg i.v. QW, Paclitaxel 10 mg/kg i.p. 7 consecutive days",statistically significantly lower
"GI101C2: comparative fusion protein: Fc domain, linker, IL-2 variant (2M) (R38A, F42A); SEQ ID NO: 19",proportion of CD8+ T cells,[4],significant increase
same,proliferation of CD4+/FoxP3+ Treg cells,[4],significant increase
"Keytruda: Keytruda (Pembrolizumab, MSD), an anti-PD-1 antibody [reference compound]",tumor growth,"MDA-MB-231 cells; GI101 6 mg/kg, Keytruda 5 mg/kg, 4 administrations, compared with the control (hIgG4)",tumor growth inhibition
same,number of mice with tumor growth inhibition rate of 30% or more,MDA-MB-231 cells; [6],7 mice
same,number of mice with tumor growth inhibition rate of 50% or more,MDA-MB-231 cells; [6],5 mice
same,number of mice with tumor growth inhibition rate of 80% or more,MDA-MB-231 cells; [6],3 mice
"Proleukin: Proleukin (Novartis, hIL-2); human recombinant IL-2 [reference compound]",proportion of CD8+ T cells,[4],significant increase
same,proliferation of CD4+/FoxP3+ Treg cells,[4],significant increase
